In experiment [1] the target is T1, androgen receptor (Homo sapiens, UniProt P10275).
T1 sequence (P10275 1-920): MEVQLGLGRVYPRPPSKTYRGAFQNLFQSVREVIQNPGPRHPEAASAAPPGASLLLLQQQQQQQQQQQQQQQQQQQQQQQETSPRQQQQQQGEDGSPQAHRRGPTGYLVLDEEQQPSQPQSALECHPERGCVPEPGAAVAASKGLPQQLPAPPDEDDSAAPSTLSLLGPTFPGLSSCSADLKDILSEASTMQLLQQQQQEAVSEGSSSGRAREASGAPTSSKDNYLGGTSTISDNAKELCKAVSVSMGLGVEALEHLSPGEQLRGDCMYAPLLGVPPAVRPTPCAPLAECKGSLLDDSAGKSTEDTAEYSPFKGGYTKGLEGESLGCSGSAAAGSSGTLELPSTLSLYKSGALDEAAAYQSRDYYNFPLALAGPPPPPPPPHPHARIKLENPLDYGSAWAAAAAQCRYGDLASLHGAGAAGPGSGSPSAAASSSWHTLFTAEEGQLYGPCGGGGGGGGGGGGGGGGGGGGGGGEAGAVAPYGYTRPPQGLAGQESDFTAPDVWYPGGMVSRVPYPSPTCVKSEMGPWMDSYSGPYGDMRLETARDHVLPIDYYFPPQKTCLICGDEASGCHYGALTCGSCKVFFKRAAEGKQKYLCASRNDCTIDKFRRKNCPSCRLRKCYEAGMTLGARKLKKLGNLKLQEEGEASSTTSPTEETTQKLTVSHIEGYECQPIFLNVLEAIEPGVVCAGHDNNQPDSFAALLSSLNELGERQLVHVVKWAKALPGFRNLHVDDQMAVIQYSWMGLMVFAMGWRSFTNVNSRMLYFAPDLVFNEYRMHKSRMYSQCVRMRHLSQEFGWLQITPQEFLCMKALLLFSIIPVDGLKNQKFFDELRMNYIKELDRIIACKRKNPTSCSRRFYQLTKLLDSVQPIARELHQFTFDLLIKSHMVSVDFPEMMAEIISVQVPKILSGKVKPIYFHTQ
Nature of the experiment: Androgen receptor binding test. Set-up: expressed in transfected cells. The note with it: reference substance 3H-testosterone.

Experiment [2] deals with T2, mineralocorticoid receptor (Homo sapiens, UniProt P08235).
T2 sequence (P08235 1-984): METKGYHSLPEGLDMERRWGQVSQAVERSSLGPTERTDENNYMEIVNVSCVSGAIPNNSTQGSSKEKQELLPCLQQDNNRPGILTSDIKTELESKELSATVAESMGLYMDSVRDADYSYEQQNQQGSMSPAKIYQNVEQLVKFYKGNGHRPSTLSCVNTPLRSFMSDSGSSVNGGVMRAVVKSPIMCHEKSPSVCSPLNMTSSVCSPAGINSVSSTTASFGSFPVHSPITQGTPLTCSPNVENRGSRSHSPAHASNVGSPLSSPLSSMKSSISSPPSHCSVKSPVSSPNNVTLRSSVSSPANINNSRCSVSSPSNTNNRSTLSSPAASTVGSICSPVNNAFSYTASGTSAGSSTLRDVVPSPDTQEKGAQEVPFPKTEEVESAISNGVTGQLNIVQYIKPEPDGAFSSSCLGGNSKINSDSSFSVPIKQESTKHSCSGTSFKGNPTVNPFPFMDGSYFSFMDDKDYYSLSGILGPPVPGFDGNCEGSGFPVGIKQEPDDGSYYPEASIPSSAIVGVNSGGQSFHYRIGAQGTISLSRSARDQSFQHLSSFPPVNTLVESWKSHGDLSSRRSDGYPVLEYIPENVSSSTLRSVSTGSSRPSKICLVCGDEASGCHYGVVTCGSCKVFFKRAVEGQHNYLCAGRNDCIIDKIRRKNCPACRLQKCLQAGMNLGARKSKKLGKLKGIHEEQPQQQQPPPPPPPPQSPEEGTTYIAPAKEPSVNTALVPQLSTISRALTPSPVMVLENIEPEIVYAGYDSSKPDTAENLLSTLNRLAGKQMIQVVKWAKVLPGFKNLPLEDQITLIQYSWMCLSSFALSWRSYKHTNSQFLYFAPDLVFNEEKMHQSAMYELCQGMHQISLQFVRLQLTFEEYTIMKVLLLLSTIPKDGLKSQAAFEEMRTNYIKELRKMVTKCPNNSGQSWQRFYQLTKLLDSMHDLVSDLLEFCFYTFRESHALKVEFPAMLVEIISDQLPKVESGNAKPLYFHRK
Nature of the experiment: Mineralocorticoid receptor binding test. Set-up: made in house; host or cells: Hi5 insect cells (cytosol). The following applies: reference substance 3H-aldosterone, cytosol from MR-expressing insect cells (Hi5). The protocol: Using cytosol from progesterone receptor-expressing insect cells (Hi5), competitive binding to the progesterone receptor was determined from the ability to displace ^3H-progesterone as reference substance from the receptor.
2. Mineralocorticoid Receptor Binding Test:
The test was carried out as in 1, with the following modifications: cytosol from mineralocorticoid receptor-expressing insect cells (Hi5) was used, and the reference substance was ^3H-aldosterone.

Experiment [3] addresses T1, androgen receptor. Description: Androgenic/antiandrogenic action by transactivation test (PC3 reporter cells). The format is cell-based. The arrangement: expressed in transfected cells; host or cells: PC3 cells. The protocol:
(§1) The test compounds were added eight hours later, and the cells were incubated with the compounds for 16 hours. The tests were carried out in triplicate. At the end of incubation the medium containing the effector was removed and replaced with lysis buffer. After luciferase assay substrate (Promega, #E1501) had been added, the 96-well plates were then put in a microplate luminometer (Pherastar, BMG Labtech), and the luminescence was measured. The IC50 values were evaluated using software for calculating dose-effect relations.
6. Determination of Androgenic/Antiandrogenic Action by Means of Transactivation Tests:
The androgenic/antiandrogenic action of the test substances was determined as for the transactivation tests described above.
The following modifications were made: In this case reporter cell lines were used (PC3 cells) that express the androgen receptor, and a reporter construct that contains luciferase under the control of a steroid hormone-responsive promoter.
For determination of the antiandrogenic efficacy, 0.05 nM R1881 was added to the cells, in order to achieve almost maximum stimulation of the reporter gene.

Experiment [4] has as its target T2, mineralocorticoid receptor. Description: Antimineralocorticoid action by transactivation test (MDCK reporter cells).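 On Emax: percent inhibition of the aldosterone-stimulated reporter signal.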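 On Mineralocorticoid receptor Antagonism efficacy: percent inhibition of the aldosterone-stimulated reporter signal.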 The format is cell-based. The arrangement: expressed in transfected cells; host or cells: MDCK cells. The note with it: for Emax: read-out: Mineralocorticoid receptor Antagonism efficacy. The protocol:
as §1
5. Determination of Antimineralocorticoid Action by Means of Transactivation Tests:
The antimineralocorticoid activity of the test substances was determined as for the transactivation tests described above.
The following modifications were undertaken: In this case reporter cell lines were used (MDCK cells) that express the human mineralocorticoid receptor, and transiently contain a reporter construct that contains luciferase under the control of a steroid hormone-responsive promoter.

Where [5] appears, read: PC-3, read-out: Androgen receptor Agonism efficacy.
Setting [6] is: PC-3, read-out: Androgen receptor Antagonism efficacy.

Read-outs that look alike come from different tables or passages of the source.

With `CC[C@@H]1CC2=CC(=O)CC[C@@H]2[C@H]2CC[C@@]3(CC)[C@@H]([C@@H]4C[C@@H]4[C@@]34C=CC(=O)O4)[C@H]12` [Example 5A, 17β-Hydroxy-7α-ethyl-18-methyl-15β,16β-methylene-19-nor-17α-pregna-4,20(Z)-dien-3-one-21-carboxylic acid γ-lactone], the “Androgen receptor Competition factor” value at androgen receptor [1] was 4.1. In addition, the “Mineralocorticoid receptor (MR) Competition factor” value (shortened to “Mineralocorticoid receptor”) in experiment [2] came out at 1.0. The compound also had an EC50 at androgen receptor [3] of 8.3 nM. In addition, the figures for the Emax at androgen receptor [3] (setting [5]) and on androgen receptor [3] (setting [6]) were 73% and 5%, respectively.
`CC[C@@H]1CC2=CC(=O)CC[C@@H]2[C@H]2CC[C@@]3(C)[C@@H]([C@H]4C[C@H]4[C@@]34C=CC(=O)O4)[C@H]12` [Example 15A, 17β-Hydroxy-7α-ethyl-15α,16α-methylene-19-nor-17α-pregna-4,20(Z)-dien-3-one-21-carboxylic acid γ-lactone] registered an IC50 in experiment [4] of 12 nM. The figures for the Emax (in experiment [4] (MDCK); at androgen receptor [3] (setting [5]); on androgen receptor [3] (setting [6])) were 112%, 49.4% and 5%, respectively. Further, the “Androgen receptor Competition factor” value on androgen receptor [1] stood at 2.2. Moreover, in experiment [2], the “Mineralocorticoid receptor” value was 0.8. Further, at androgen receptor [3], the EC50 was found to be 11 nM.
`CC[C@]12CC[C@H]3[C@@H]([C@H]4C[C@H]4C4=CC(=O)CC[C@@H]43)[C@@H]1[C@@H]1C[C@@H]1[C@@]21C=CC(=O)O1` [Example 1, 6β,7β;15β,16β-Bismethylene-17β-hydroxy-18-methyl-19-nor-17α-pregna-4,20(Z)-dien-3-one-21-carboxylic acid γ-lactone] yielded an IC50 in experiment [4] of 10 nM. Besides, the results for the Emax (in experiment [4] (MDCK); at androgen receptor [3] (setting [5]); at androgen receptor [3] (setting [6])) were 79.5%, 46.3% and 5%, respectively. For the same compound, the “Androgen receptor Competition factor” value at androgen receptor [1] is listed as 30.6. The “Mineralocorticoid receptor” value in experiment [2] is given as 1.6. Also, on androgen receptor [3], the EC50 is 100 nM.
`C[C@]12CC[C@H]3[C@@H](CCC4=CC(=O)CC[C@@H]43)[C@@H]1[C@@H]1C[C@@H]1[C@@]21C=CC(=O)O1` [Example 19, 17β-Hydroxy-15β,16β-methylene-19-nor-17α-pregna-4,20(Z)-dien-3-one-21-carboxylic acid γ-lactone]: the IC50 in experiment [4] stood at 62 nM. The Emax in experiment [4] (MDCK) is 92.8%; on androgen receptor [3] (setting [5]) it was 87.5%; on androgen receptor [3] (setting [6]), 5%. In addition, at androgen receptor [1], the “Androgen receptor Competition factor” value worked out at 6.4. Also, in experiment [2], the “Mineralocorticoid receptor” value was determined as 187.0. The compound also had an EC50 on androgen receptor [3] of 5.3 nM.
In experiment [4], `C=C[C@@H]1CC2=CC(=O)CC[C@@H]2[C@H]2CC[C@@]3(CC)[C@@H]([C@@H]4C[C@@H]4[C@@]34C=CC(=O)O4)[C@@H]21` [Example 6A, 17β-Hydroxy-7α-vinyl-18-methyl-15β,16β-methylene-19-nor-17α-pregna-4,20(Z)-dien-3-one-21-carboxylic acid γ-lactone] showed an IC50 of 9 nM. Also, the Emax in experiment [4] (MDCK) was found to be 102%; on androgen receptor [3] (setting [5]), 118%; on androgen receptor [3] (setting [6]), 5%. At androgen receptor [1], the “Androgen receptor Competition factor” value was found to be 1.7. Also, the “Mineralocorticoid receptor” value in experiment [2] is reported as 1.5. On androgen receptor [3], the EC50 was found to be 0.98 nM.
In turn, `CC[C@]12CC[C@H]3[C@@H](CCC4=CC(=O)CC[C@@H]43)[C@@H]1[C@@H]1C[C@@H]1[C@@]21C=CC(=O)O1` [Example 9, 17β-Hydroxy-18-methyl-15β,16β-methylene-19-nor-17α-pregna-4,20(Z) dien-3-one-21-carboxylic acid γ-lactone] came in with an IC50 in experiment [4] of 3 nM. Further, the Emax was 27.8% in experiment [4] (MDCK), 96.2% on androgen receptor [3] (setting [5]) and 5% at androgen receptor [3] (setting [6]). Moreover, on androgen receptor [1], the “Androgen receptor Competition factor” value was 5.6. Also, in experiment [2], the “Mineralocorticoid receptor” value is on record as 1.1. This compound gave an EC50 on androgen receptor [3] of 4.7 nM.
Take `C=C[C@@H]1CC2=CC(=O)CC[C@@H]2[C@H]2CC[C@@]3(C)[C@@H]([C@H]4C[C@H]4[C@@]34C=CC(=O)O4)[C@@H]21` [Example 16A, 17β-Hydroxy-7α-vinyl-15α,16α-methylene-19-nor-17α-pregna-4;20(Z)-dien-3-one-21-carboxylic acid γ-lactone]: the IC50 in experiment [4] amounted to 95 nM. Also, the Emax came out at 103% in experiment [4] (MDCK), 62.6% on androgen receptor [3] (setting [5]) and 5% at androgen receptor [3] (setting [6]). Further, on androgen receptor [1], the “Androgen receptor Competition factor” value is 2.6. In addition, the “Mineralocorticoid receptor” value in experiment [2] is 2.0. At androgen receptor [3], the response was half-maximal at 12 nM (EC50).
With `C[C@]12CC[C@H]3[C@@H](C[C@@H](CO)C4=CC(=O)CC[C@@H]43)[C@@H]1[C@@H]1C[C@@H]1[C@@]21C=CC(=O)O1` [Example 21, 17β-Hydroxy-6β-hydroxymethylene-15β,16β-methylene-19-nor-17α-pregna-4,20(Z)-dien-3-one-21-carboxylic acid γ-lactone], the IC50 in experiment [4] (MDCK cells, with 1 nM aldosterone, read-out: Mineralocorticoid receptor Antagonism IC50) came out at 160 nM; against androgen receptor [3], 500 nM. Also, the Emax in experiment [4] (MDCK cells, with 1 nM aldosterone) amounted to 68%; at androgen receptor [3] (setting [5]) it was 5%; on androgen receptor [3] (setting [6]), 15.7%. In addition, the “Androgen receptor Competition factor” value on androgen receptor [1] is 1000.0.

(Values after US20110015162A1, “15,16-Methylene-17-hydroxy-19-nor-21-carboxylic acid-steroid Y-lactone derivative, use thereof and medicinal products containing the derivative” (Bayer Schering Pharma Aktiengesellschaft, priority 2007, published 2011).)
